Laboratory results as given in patent publication US10323063B2, “Advanced macromolecule transduction domain (aMTD) sequences for improvement of cell-permeability, polynucleotides encoding the same, method to identify the unique features of aMTDs comprising the same, method to develop the aMTD sequences comprising the same” (CELLIVERY THERAPEUTICS, INC., priority 2014, dated 2019).

Test system: RAW 264.7 cells
Assay: Quantitative cell-permeability of FITC-labeled aMTD- or rPeptide-fused CRA recombinant proteins by flow cytometry
Assay type: cell-based
Settings: for Relative Ratio to aMTD AVE: cell-permeability of rPeptide relative to the average of 240 aMTDs
Text: The aMTDs and rPeptides were fluorescently labeled and compared based on the critical factors for cell-permeability by using flow cytometry and confocal laser scanning microscopy (FIG. 5 to 8). The cellular uptake of the peptide-fused non-functional cargo recombinant proteins could quantitatively be evaluated in flow cytometry, while confocal laser scanning microscopy allows intracellular uptake to be assessed visually. The analysis included recombinant proteins fused to a negative control [rP38] that has opposite characteristics (hydrophilic and aromatic sequence: YYNQSTCGGQCY) to the aMTDs (hydrophobic and aliphatic sequences). Relative cell-permeability (relative fold) of aMTDs to the negative control was also analyzed (TABLE 39 and FIG. 9).
Geometric means of negative control (histidine-tagged rP38-fused CRA recombinant protein) subtracted by that of naked protein (histidine-tagged CRA protein) lacking any peptide (rP38 or aMTD) was standardized as relative fold of 1.
For quantitative cell-permeability, the aMTD- or rPeptide-fused recombinant proteins were conjugated to fluorescein isothiocyanate (FITC) according to the manufacturer's instructions (Sigma-Aldrich, St. Louis, Mo.). RAW 264.7 cells were treated with 10 μM FITC-labeled recombinant proteins for 1 hour at 37° C., washed three times with cold PBS, treated with 0.25% tripsin/EDTA (Sigma-Aldrich, St. Louis, Mo.) for 20 minutes at 37° C. to remove cell-surface bound proteins. Cell-permeability of these recombinant proteins were analyzed by flow cytometry (Guava, Millipore, Darmstadt, Germany) using the FlowJo cytometric analysis software (FIG. 5 to 6). The relative cell-permeability of aMTDs were measured and compared with the negative control (rP38) and reference hydrophobic CPPs (MTM12 and MTD85) (TABLE 47).

[1] = cell-permeability of aMTD-fused CRA recombinant protein relative to negative control rP38 (A type)
[2] = cell-permeability relative to reference CPP MTD85 (C type)
[3] = cell-permeability relative to reference CPP MTM12 (B type)
[4] = cell-permeability of aMTD-fused CRA recombinant protein relative to negative control (A: rP38)
[5] = cell-permeability of aMTD-fused CRA recombinant protein relative to reference CPP (B: MTM12)
[6] = cell-permeability of aMTD-fused CRA recombinant protein relative to reference CPP (C: MTD85)

| Substance | Relative Ratio (Fold) A [1] | Relative Ratio (Fold) C [2] | Relative Ratio (Fold) B [3] | Relative Ratio to aMTD AVE | Relative Ratio (Fold) A [4] | Relative Ratio (Fold) B [5] | Relative Ratio (Fold) C [6] |
| --- | --- | --- | --- | --- | --- | --- | --- |
| 22 (AVVLVPVLAAAP; Advanced Macromolecule Transduction Domain (aMTD) Sequences for Improvement of Cell-Permeability) [compound 22] | 3.1 Fold | 1.1 Fold | 2.1 Fold | – | – | – | – |
| 23 (VVLVLPAAAAVP; Advanced Macromolecule Transduction Domain (aMTD) Sequences for Improvement of Cell-Permeability) [compound 23] | 4.0 Fold | 1.3 Fold | 2.6 Fold | – | – | – | – |
| 42 (VAALPVVAVVAP; Advanced Macromolecule Transduction Domain (aMTD) Sequences for Improvement of Cell-Permeability) [compound 42] | 2.5 Fold | 0.8 Fold | 1.7 Fold | – | – | – | – |
| 44 (ALAVPVALLVAP; Advanced Macromolecule Transduction Domain (aMTD) Sequences for Improvement of Cell-Permeability) [compound 44] | 1.6 Fold | 0.5 Fold | 1.1 Fold | – | – | – | – |
| 49 (VVPAAPAVPVVP) [compound 49] | – | – | – | 0.18 | – | – | – |
| 57 (QNNCNTSSQGGG) [compound 57] | – | – | – | 0.06 | – | – | – |
| 63 (AALLVPALVAVP; Advanced Macromolecule Transduction Domain (aMTD) Sequences for Improvement of Cell-Permeability) [compound 63] | 1.9 Fold | 0.7 Fold | 1.3 Fold | – | – | – | – |
| 81 (AALLPALAALLP; Advanced Macromolecule Transduction Domain (aMTD) Sequences for Improvement of Cell-Permeability) [compound 81] | 6.9 Fold | 2.3 Fold | 4.6 Fold | – | – | – | – |
| 101 (LVALAPVAAVLP; Advanced Macromolecule Transduction Domain (aMTD) Sequences for Improvement of Cell-Permeability) [compound 101] | 4.5 Fold | 1.5 Fold | 3.0 Fold | – | – | – | – |
| 102 (LALAPAALALLP; Advanced Macromolecule Transduction Domain (aMTD) Sequences for Improvement of Cell-Permeability) [compound 102] | 1.4 Fold | 0.5 Fold | 0.9 Fold | – | – | – | – |
| 103 (ALIAAPILALAP; Advanced Macromolecule Transduction Domain (aMTD) Sequences for Improvement of Cell-Permeability) [compound 103] | 2.1 Fold | 0.7 Fold | 1.4 Fold | – | – | – | – |
| 104 (AVVAAPLVLALP; Advanced Macromolecule Transduction Domain (aMTD) Sequences for Improvement of Cell-Permeability) [compound 104] | 7.3 Fold | 2.5 Fold | 4.9 Fold | – | – | – | – |
| 123 (AAIIVPAALLAP; Advanced Macromolecule Transduction Domain (aMTD) Sequences for Improvement of Cell-Permeability) [compound 123] | 2.9 Fold | 1.0 Fold | 2.0 Fold | – | – | – | – |
| 144 (VLAIVPAVALAP; Advanced Macromolecule Transduction Domain (aMTD) Sequences for Improvement of Cell-Permeability) [compound 144] | 8.8 Fold | 3.0 Fold | 5.9 Fold | – | – | – | – |
| 162 (AVVALPAALIVP; Advanced Macromolecule Transduction Domain (aMTD) Sequences for Improvement of Cell-Permeability) [compound 162] | 8.2 Fold | 2.8 Fold | 5.5 Fold | – | – | – | – |
| 163 (LALVLPAALAAP; Advanced Macromolecule Transduction Domain (aMTD) Sequences for Improvement of Cell-Permeability) [compound 163] | 4.1 Fold | 1.4 Fold | 2.4 Fold | – | – | – | – |

| Substance | Relative Ratio (Fold) A [1] | Relative Ratio (Fold) C [2] | Relative Ratio (Fold) B [3] | Relative Ratio to aMTD AVE | Relative Ratio (Fold) A [4] | Relative Ratio (Fold) B [5] | Relative Ratio (Fold) C [6] |
| --- | --- | --- | --- | --- | --- | --- | --- |
| 164 (LAAVLPALLAAP; Advanced Macromolecule Transduction Domain (aMTD) Sequences for Improvement of Cell-Permeability) [compound 164] | 8.2 Fold | 2.8 Fold | 5.5 Fold | – | – | – | – |
| 165 (ALAVPVALAIVP; Advanced Macromolecule Transduction Domain (aMTD) Sequences for Improvement of Cell-Permeability) [compound 165] | – | – | – | – | 19.8 Fold | 13.2 Fold | 6.7 Fold |
| 204 (LIAALPAVAALP; Advanced Macromolecule Transduction Domain (aMTD) Sequences for Improvement of Cell-Permeability) [compound 204] | 2.2 Fold | 0.8 Fold | 1.5 Fold | – | – | – | – |
| 205 (ALALVPAIAALP; Advanced Macromolecule Transduction Domain (aMTD) Sequences for Improvement of Cell-Permeability) [compound 205] | 2.6 Fold | 0.9 Fold | 1.7 Fold | – | – | – | – |
| 224 (ILAAVPIALAAP; Advanced Macromolecule Transduction Domain (aMTD) Sequences for Improvement of Cell-Permeability) [compound 224] | – | – | – | – | 15.8 Fold | 10.6 Fold | 5.3 Fold |
| 285 (AIVLLPAAVVAP; Advanced Macromolecule Transduction Domain (aMTD) Sequences for Improvement of Cell-Permeability) [compound 285] | – | – | – | – | – | 8.9 Fold | – |
| 363 (AVLAVAPALIVP; Advanced Macromolecule Transduction Domain (aMTD) Sequences for Improvement of Cell-Permeability) [compound 363] | – | – | – | – | 14.7 Fold | 9.8 Fold | 4.9 Fold |
| 442 (ALAALVPAVLVP; Advanced Macromolecule Transduction Domain (aMTD) Sequences for Improvement of Cell-Permeability) [compound 442] | – | – | – | – | – | 13.6 Fold | – |
| 481 (AIAIAIVPVALP; Advanced Macromolecule Transduction Domain (aMTD) Sequences for Improvement of Cell-Permeability) [compound 481] | – | – | – | – | 34.3 Fold | 23.0 Fold | 11.6 Fold |
| 484 (LAVVLAAPAIVP; Advanced Macromolecule Transduction Domain (aMTD) Sequences for Improvement of Cell-Permeability) [compound 484] | – | – | – | – | 15.6 Fold | – | – |
| 501 (VIVALAVPALAP; Advanced Macromolecule Transduction Domain (aMTD) Sequences for Improvement of Cell-Permeability) [compound 501] | – | – | – | – | – | – | 7.3 Fold |
| 503 (AAIIIVLPAALP; Advanced Macromolecule Transduction Domain (aMTD) Sequences for Improvement of Cell-Permeability) [compound 503] | – | – | – | – | 17.6 Fold | 11.8 Fold | 5.9 Fold |
| 543 (LLAALIAPAALP; Advanced Macromolecule Transduction Domain (aMTD) Sequences for Improvement of Cell-Permeability) [compound 543] | – | – | 7.8 Fold | – | – | – | – |
| 563 (ALAVIVVPALAP; Advanced Macromolecule Transduction Domain (aMTD) Sequences for Improvement of Cell-Permeability) [compound 563] | – | – | – | – | 47.1 Fold | 31.4 Fold | 15.9 Fold |
| 606 (AAAIAAIPIIIP) [compound 606] | – | – | – | 0.20 | – | – | – |
